# Source: PMC11483813, “Bombesin-Targeted Delivery of β-Carboline-Based Ir(III) and Ru(II) Photosensitizers for a Selective Photodynamic Therapy of Prostate Cancer” (Inorganic Chemistry, 2024)
# What was measured:
# [1] = system: PC-3 prostate cancer cells; type: cell-based, human; details: PC-3; 4 h incubation, kept in the dark 1 h; MTT after 48 h; read-out: IC50 PC-3 Dark
# Protocol: (§1) The effect of Ir-H, Ir-Me, Ru-H, and Ru-Me on cell viability was evaluated in the A549 lung cancer and PC-3 prostate cancer cell lines by MTT assays. PC-3 cells were specifically chosen due to their high expression levels of GRPR on their surface, allowing for further evaluation of the activity of the BN3-derived metallopeptides Ir-BN and Ru-BN.[38],[51] In contrast, A549 cells express low levels of GRPR.[52] MRC-5 fibroblasts were used as a nonmalignant cell model.[53]Table 3 reports the half maximal inhibitory concentration (IC50) values obtained after treating the cells either under dark conditions or upon exposure to blue light at a dose of 24.1 J cm^–2. The photocytotoxicity index (PI), defined as the IC50,dark/IC50,light, is provided for each compound.
# (§2) Stock solutions of the complexes and metallopeptides were initially prepared at a concentration of 5 mM in DMSO and then diluted in sterile distilled water to achieve a final concentration of 1 mM, with a resulting DMSO concentration of 20% v/v. Cells were seeded into 96-well plates at a density of 2500 cells/well for A549, 3500 cells/well for PC-3, and 5500 cells/well for MRC-5. Following 24 h of incubation for attachment, cells were treated in triplicate with freshly prepared working solutions of the compounds in the culture medium at concentrations ranging from 0.001 to 100 μM. The maximum DMSO concentration in the working solutions was 2% (v/v). The working concentrations for each compound were adjusted based on their cytotoxicity. Following a 4 h incubation period to allow internalization of the compounds into the cells, the plates were kept in dark conditions or exposed to blue (460 nm) or red (655 nm) light for 1 h using an LED system (LuxLight), providing a total dose of 24.1 J cm^–2. All plates were incubated in the dark for an additional 43 h. Cells were then washed with phosphate-buffered saline (PBS), and 100 μL of fresh culture medium containing 10% of 3-[4,5-dimethylthiazol-2-yl]-2,5 diphenyl tetrazolium bromide (MTT) solution (0.5 mg/mL) (Sigma- Aldrich) was added to each well. After a 2 h incubation period, the formazan crystals were dissolved in DMSO, and the absorbance was measured at 570 nm using a Multiscan Plate Reader (Synergy 4, Biotek, Winooski, USA). The concentration causing a 50% reduction in cell viability (IC50) was determined for each compound with the Gen5 software (BioTek). At least three independent experiments were conducted for each compound.
# A549 lung cancer cells = type: cell-based, human; details: A549; 4 h incubation, kept in the dark 1 h; MTT after 48 h; read-out: IC50 A549 Dark
# Protocol: as §1, §2
# MRC-5 fibroblasts = type: cell-based, human; details: MRC-5; 4 h incubation, kept in the dark 1 h; MTT after 48 h; read-out: IC50 MRC-5 Dark
# Protocol: as §1, §2
# [2] = design: method as in earlier work; details: standard reference; H2O:DMSO (55:45); ref 6 (SI); cited from earlier work
Structure (SMILES),IC50 [1],IC50 (A549 lung cancer cells),IC50 (MRC-5 fibroblasts),singlet oxygen quantum yield (ΦΔ) [2]
"N.N.[Cl][Pt][Cl] [Cisplatin, reference compound]",5.55 ± 0.97 µM,5.99 ± 1.2 µM,5.34 ± 0.38 µM,–
O=C([O-])c1c(Cl)c(Cl)c(Cl)c(Cl)c1-c1c2cc(I)c(=O)c(I)c-2oc2c(I)c([O-])c(I)cc12.[Na+].[Na+] [rose bengal],–,–,–,0.75
